One test addresses T1, AtDEF2 (Arabidopsis thaliana, UniProt Q9FUZ2).
T1 construct: the entire putative protein and the ChloroP-predicted chloroplast-length protein; initiator Met from the NdeI site (N); made in house; host or cells: E. coli BL21(DE3)pLysS, pET23b, clone #4-D
T1 sequence (Q9FUZ2 57-273): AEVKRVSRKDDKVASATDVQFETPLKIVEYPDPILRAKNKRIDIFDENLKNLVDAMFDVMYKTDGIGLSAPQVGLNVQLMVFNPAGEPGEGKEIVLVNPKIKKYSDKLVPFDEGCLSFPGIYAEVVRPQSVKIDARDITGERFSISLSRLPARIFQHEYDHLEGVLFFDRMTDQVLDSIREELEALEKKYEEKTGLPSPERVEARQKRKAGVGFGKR
The test can be described thus: Continuous spectrophotometric peptide deformylase activity and inhibition assay (formyl-Met-Leu-p-nitroanilide, coupled with Aeromonas proteolytica aminopeptidase). It is filed as biochemical. The procedure: Experiments were designed to detect deformylase activity from recombinant AtDEF2 using the assay as described by Wei and Pei, Analytical Biochemistry 250:29-34 (1997). Continuous spectrophotometric assays of peptide deformylase activity were carried out at a temperature of 20° C. Assays were performed in polystyrene or quartz cuvettes containing 50 mM Tris-HCl, pH 8.2, 1 mM ethylene diamine bis(β-aminoethyl ether-N,N′-tetraacetic acid ([…]), 5 mM MgCl2, 200 μM NiSO4 0-200 μM peptide substrate and 1.0 units of Aeromonas proteolytica aminopeptidase. […] The reactions were monitored continuously at 405 nm in a Shimadzu UV-201 PC scanning spectrophotometer, and the initial rates were calculated from the early part of the reaction progression curves (<60 s). Spectrophotometric detection and quantitation was performed of p-nitroaniline released from formyl-Met-Leu-p-nitroanilide substrate (BACHEM Cat. No. L2030; King of Prussia, Pa. 19406 USA) following sequential action of AtDEF2 and Aeromonas proteolytica aminopeptidase (Sigma Cat. No. A8200; St. Louis, Mo., 63118 USA).

The test system of test [1] is Pea plants (Pisum sativum L. cv. Laxton's Progress No. 9). The test is described as follows: Assay for in vivo herbicidal activity on pea plants. To be noted: ten-day old pea plants. The procedure: Pea plants (Pisum sativum L. cv. Laxton's Progress No. 9) were sown in 46×62 cm flats of MetroMix 360 and grown for 10-12 days in a greenhouse (minimum night temperature of 30° C.) as described by Wang, P., Royer, M., and Houtz, R. L. Affinity purification of ribulose-1,5-bisphosphate carboxylase/oxygenase large subunit epsilon N-methyltransferase. Protein Expression and Purification 6:528-526 (1995). Ten-day old pea plants were treated with approximately 100-200 μl actinonin (final concentration. 2.5 mg/ml per plant in 0.1% Tween-20). Control plants were treated with 0.1% Tween-20. […] The changes were clearly visible within 48 hours after treatment with actinonin.

On to `CCCCC[C@H](CC(=O)NO)C(=O)N[C@H](C(=O)N1CCC[C@H]1CO)C(C)C` [actinonin], for which the “inhibition of deformylase activity after preincubation” value against AtDEF2 (43.5 μg AtDEF2 preincubated 3 minutes with 3.2 μM actinonin, assay then initiated with substrate) is “Nearly complete inhibition”. Also, the “inhibition of AtDEF2 activity (actinonin included in assay, no preincubation)” value on AtDEF2 (within 60 seconds, FIG. 8, 20° C.) is recorded as “significantly inhibited”. In addition, the “time after treatment at which changes were clearly visible” value in test [1] (2.5 mg/ml actinonin in 0.1% Tween-20) was at most 48 h. Further, in test [1] (approximately 100-200 μl actinonin, 2.5 mg/ml per plant in 0.1% Tween-20, foliar application), the “observable alterations in plant growth” value is “stunting and yellowing of pea plants”.

The values are drawn from patent publication US7745693B2, “Inhibitors of plant peptide deformylase for use as broad-spectrum herbicides and methods for identifying the same” (University of Kentucky Research Foundation, priority 2007, dated 2010).
